Measured values: paper PMC9324693, “α-Hydroxylactams as Efficient Entries to Diversely Functionalized Ferrociphenols: Synthesis and Antiproliferative Activity Studies” (Molecules, 2022)

Key:
[1] = tested on: triple negative breast cancer cell line MDA-MB-231; settings: measured after 5 days of incubation (stated for B and C); cited from earlier work
[2] = tested on: NCI-60 panel of human cancer cells; design: method as in PMID 30977944; settings: read-out: mean GI50 (half maximal growth inhibition); cited from earlier work
MCF-7 = experiment: MTT cell viability assay on MCF-7 cells; assay type: cell-based; settings: for EC50: 96-well plates, 4000 cells/well, viability after 3 days by MTT, mean ± SD of three independent experiments
Method: (§1) A prerequisite to further bioorthogonal modifications is to preserve the biological properties of ferrociphenol compounds. Then, the impact of some of the grafted substituents on the antiproliferative activity was examined by a classical MTT cell viability assay on the two breast cancer cell lines MDA-MB-231 and MCF-7 as well as on the non-tumorigenic cell line hTERT-RPE1 (Table 3). The two cancer cell lines were chosen since most of the previously reported data on ferrocifens were carried out on these cellular models. The experimental protocol is described in Section 3.14., and it is important to emphasize here that the EC50 values reported in Table 3 are not to be compared to the IC50 values reported in the literature, since the assay conditions are different. For this reason, we included as a reference the ferrocenyl derivative of hydroxytamoxifen Fc-OH-TAM-3 [8] that is known to be cytotoxic to numerous cell lines. […] This feature was taken into account when performing data fitting.
(§2) MDA-MB-231, MCF-7, and hTERT-RPE1 cells were obtained from ATCC. Cells were maintained in a monolayer culture in DMEM with phenol red with Glutamax I (MDA-MB-231) or 2 mM L-glutamine (MCF-7) or 15 mM HEPES (hTERT-RPE1) supplemented with 10% FBS at 37 °C in a humidified atmosphere and 5% CO2. Stock solutions of the complexes were prepared in DMSO. Cells were seeded in 96-well plates at a density of 4000 cells/well. After overnight attachment, a dilution series of the compounds were added in the medium, and cells were incubated for a further 72 h. […] Cell viability was evaluated by using a colorimetric method based on the tetrazolium salt MTT [3-(4,5-dimethylthiazol-2-yl)-2,5-diphenyltetrazolium bromide], which is reduced by viable cells to yield purple formazan crystals. After 72 h, the medium was removed and the cells were incubated with MTT solution in PBS (10 μL of a 5 mg/mL) for 2–3 h of incubation. The formed purple formazan crystals were dissolved in 100 μL DMSO by thorough shaking, and the absorbance at 560 nm was read using a microplate reader (FLUOstar OPTIMA, BMG Labtech, Ortenberg, Germany). Each test was performed with at least three replicates and repeated at least three times. EC50 were determined using Dr Fit software.

MDA-MB-231 = experiment: MTT cell viability assay on MDA-MB-231 cells; assay type: cell-based; settings: for EC50: 96-well plates, 4000 cells/well, viability after 3 days by MTT, mean ± SD of three independent experiments
Method: as §1, §2

hTERT-RPE1 = experiment: MTT cell viability assay on non-tumorigenic hTERT-RPE1 cells; assay type: cell-based; settings: for EC50: 96-well plates, 4000 cells/well, viability after 3 days by MTT, mean ± SD of three independent experiments; for toxicity on hTERT-RPE1 compared with MCF-7: comparison of EC50 values
Method: as §1, §2

HRP = target: T1, HRP (Armoracia rusticana, UniProt P00433); experiment: Enzymatic oxidation with HRP and H2O2; assay type: biochemical; settings: fourfold molar excess of H2O2, HRP, pH 8.1; λmax 571–572 nm
T1 construct: purchased
T1 sequence (P00433 31-338 limits assumed): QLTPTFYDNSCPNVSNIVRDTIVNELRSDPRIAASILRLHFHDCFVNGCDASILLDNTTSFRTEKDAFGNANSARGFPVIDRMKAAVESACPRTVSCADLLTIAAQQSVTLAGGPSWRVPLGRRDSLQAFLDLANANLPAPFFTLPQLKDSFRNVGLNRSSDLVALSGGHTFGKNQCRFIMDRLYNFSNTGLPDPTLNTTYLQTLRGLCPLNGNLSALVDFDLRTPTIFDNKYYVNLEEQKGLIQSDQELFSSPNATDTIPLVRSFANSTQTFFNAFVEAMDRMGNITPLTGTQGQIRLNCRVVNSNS
Method: Enzymatic oxidation of 19, 20, 22, 23, and 25 was performed with a fourfold molar excess of H2O2 in the presence of HRP at pH 8.1. […] This behavior is reminiscent of that previously observed for a structurally related diphenol complex, which lets us conclude that enzymatic oxidation of 19, 20, 22, 23, and 25 affords the corresponding quinone methide in the anionic phenolate form, regardless of the substituent grafted from the phthalimide ring.
Figure S51. UV-vis spectra of compounds 19, 20, 22, 23 and 25 (50 µM) treated by HRP (46 nM) and H2O2 (200 µM) in 0.2 M TRIS buffer pH 8.1. Conversion to the phenolate form of the quinone methides is assessed by the appearance of the characteristic bands at ca. 570 and 360 nm. […]

[3] = tested on: glioblastoma cell model U87; design: method as in PMID 26136201; settings: cited from earlier work
[4] = Solubility tests by shaking suspensions and RP-HPLC analysis of supernatants; assay type: physicochemical; settings: for solubility in aqueous medium: water or PBS, shaken overnight at room temperature, RP-HPLC of supernatants, theoretical concentration 1 mM
Method: Due to water insolubility being a known issue for the ferrocidiphenol family, we exploited this strategy to attach substituents that could increase their solubility in a biologically relevant context. Thus, attaching short and monodisperse PEG chains seemed interesting. The tetraethylene glycol chain was readily grafted to A to afford 22 in 79% yield at room temperature in less than 3 h.
Figure S50: Solubility studies by RP-HPLC analysis of compounds 18 (A), 20 (B) and […]
A given amount of compounds 18, 20 and 22 was weighted and suspended in a given volume of tested solvent (DMSO, MeOH, PBS and H2O) to reach a theoretical concentration of 1 mM. Suspensions were sonicated for 1 min and shaken at R.T. for 18 h. The resulting solutions were filtrated (pore size 0.2 µm) and diluted to 100 µM in MeCN (for the solutions in organic solvents). HPLC analysis was performed on Nucleodur C18 column, (100 Å , 5 µm, 4.6 x 150 mm, Macherey-Nagel) using […]
(also on this page, place not known: MeOH DMSO PBS – H2O A PBS MeOH DMSO PBS B H2O MeOH DMSO PBS – H2O C) […]

EC50 (MCF-7) [µM] | EC50 (MDA-MB-231) [µM] | enzymatic oxidation to quinone methide (HRP) | Molecule | EC50 (hTERT-RPE1) [µM] | solubility in aqueous medium [4] | toxicity on hTERT-RPE1 compared with MCF-7 (hTERT-RPE1) | also measured
– | – | – | O=C1CCC(=O)N1CCCC(=C(c1ccc(O)cc1)c1ccc(O)cc1)[c-]1cccc1.[Fe+2].c1cc[cH-]c1 [Compound B] | – | – | – | IC50 [1]: 0.035 µM; GI50 [2]: ~0.1 µM
> 50 | > 50 | – | O=C1c2ccccc2C(=O)N1CCCC[c-]1cccc1.[Fe+2].c1cc[cH-]c1 [Compound 3h, N-(4-ferrocenylbutyl) Phthalimide] | > 50 | – | – | inhibition of cell growth, MCF-7 (MCF-7; MTT, 72 h): did not inhibit cell growth; inhibition of cell growth, MDA-MB-231 (MDA-MB-231; MTT, 72 h): did not inhibit cell growth; inhibition of cell growth, hTERT-RPE1 (hTERT-RPE1; MTT, 72 h): did not inhibit cell growth
4.2 ± 0.7 | 2.4 ± 0.5 | rapidly converted to bright pink adducts | C#CCCCC1c2ccccc2C(=O)N1CCCC(=C(c1ccc(O)cc1)c1ccc(O)cc1)[c-]1cccc1.[Fe+2].c1cc[cH-]c1 (stereo not drawn) [Compound 23, 2,3-Dihydro-3-(pent-4-ynyl)-2-[4-ferrocenyl-5,5-bis-(4-hydroxyphenyl)-pent-4-enyl]-1H-isoindol-1-one] | 12.9 ± 3.3 | – | – | selectivity: less toxic on hTERT-RPE1 with respect to MCF-7 (hTERT-RPE1; ratio of EC50 values): 3 fold
– | – | – | O=C1c2ccccc2C(=O)N1CCCC(=C(c1ccc(O)cc1)c1ccc(O)cc1)[c-]1cccc1.[Fe+2].c1cc[cH-]c1 [A] | – | – | – | IC50 [3]: 0.018 µM; IC50 [1]: 0.145 µM
– | – | – | O=C1c2ccccc2C(CCCCCCO)N1CCCC(=C(c1ccc(O)cc1)c1ccc(O)cc1)[c-]1cccc1.[Fe+2].c1cc[cH-]c1 (stereo not drawn) [Compound 21, 2,3-Dihydro-3-(6-hydroxyhexyl)-2-[4-ferrocenyl-5,5-bis-(4-hydroxyphenyl)-pent-4-enyl]-1H-isoindol-1-one] | – | – | – | solubility in organic solvents [4]: improved the solubility in organic solvents including DCM
– | – | – | O-{2,3-Dihydro-2-[4-ferrocenyl-5,5-bis-(4-hydroxyphenyl)-pent-4-enyl]-1H-isoindol-1-one-3-yl}-24-azido-1,4,7,10,13,16,19,22-octaoxatetracosane [Compound 24] | – | none of these compounds were soluble in aqueous medium | – | –
29.9 ± 1.3 | 8.8 ± 2.5 | rapidly converted to bright pink adducts | O=C1c2ccccc2C(OCCOCCOCCOCCO)N1CCCC(=C(c1ccc(O)cc1)c1ccc(O)cc1)[c-]1cccc1.[Fe+2].c1cc[cH-]c1 (stereo not drawn) [Compound 22, O-{2,3-Dihydro-2-[4-ferrocenyl-5,5-bis-(4-hydroxyphenyl)-pent-4-enyl]-1H-isoindol-1-one-3-yl}-12-hydroxy-1,4,7,10-tetraoxadodecane] | 24.7 ± 1.1 | none of these compounds were soluble in aqueous medium | similar | –
10.6 ± 0.3 | 6.3 ± 2.1 | rapidly converted to bright pink adducts | O=C1c2ccccc2C(CCO)N1CCCC(=C(c1ccc(O)cc1)c1ccc(O)cc1)[c-]1cccc1.[Fe+2].c1cc[cH-]c1 (stereo not drawn) [Compound 20, 2,3-Dihydro-3-(2-hydroxyethyl)-2-[4-ferrocenyl-5,5-bis-(4-hydroxyphenyl)-pent-4-enyl]-1H-isoindol-1-one] | 5 ± 0.2 | none of these compounds were soluble in aqueous medium | twice more toxic | solubility in organic solvents [4]: poorly soluble in organic solvents, except for DMSO
– | – | – | COCCOCCOCCOCCOCCOCCOCCSC1c2ccccc2C(=O)N1CCCC(=C(c1ccc(O)cc1)c1ccc(O)cc1)[c-]1cccc1.[Fe+2].c1cc[cH-]c1 (stereo not drawn) [Compound 27, S-{2,3-Dihydro-2-[4-ferrocenyl-5,5-bis-(4-hydroxyphenyl)-pent-4-enyl]-1H-isoindol-1-one-3-yl}-1-thia-4,7,10,13,16,19,22-heptaoxatricosane] | – | none of these compounds were soluble in aqueous medium | – | –
4.7 ± 1.4 | 18 ± 0.4 | rapidly converted to bright pink adducts | 2,3-Dihydro-3-(2-methoxycarbonylethylthio)-2-[4-ferrocenyl-5,5-bis-(4-hydroxyphenyl)-ent-4-enyl]-1H-isoindol-1-one [Compound 25] | 9.1 ± 0.4 | – | twice more toxic | –
